US20230157952A1, “METHOD FOR IMPROVING THE STABILITY OF A PHARMACEUTICAL COMPOSITION COMPRISING A HIGH PENETRATION DRUG, AND THE PHARMACEUTICAL COMPOSITION OBTAINED THEREFROM” (Techfields Inc., priority 2020, published 2023)

How the values were obtained:
[1] = Effect of solvent on the stability of the solution (purity at various pH values and temperature); type: physicochemical
[2] = Effect of concentration on the stability of the solution (purity over time); conditions: at 5° C. in 15% ethanol
[3] = Stability of the pure HPDs (dry solid) at 25° C./RH 60%; type: physicochemical; conditions: pure HPD, 25° C./RH 60%
[4] = Effect of pH value on the stability of the solution (purity); type: physicochemical; conditions: 5% solution
[5] = 25% ethanol (after multiple recrystalization), pH 3.7, 25° C.
[6] = 25% ethanol with 0.5 equivalent sodium acetate, pH 3.7, 25° C.
[7] = 25% ethanol with 1 equivalent sodium acetate, pH 4.6, 25° C.
[8] = 25% ethanol with 1.5 equivalent sodium acetate, pH 5.6, 25° C.
[9] = 25% ethanol with HCl, pH 2.0, 25° C.
[10] = 25% ethanol with NaOH, pH 7, 25° C.
[11] = 25% ethanol with NaOH, pH 8, 25° C.

For `CCN(CC)CCOC(=O)c1ccccc1OC(C)=O.Cl` [2-(diethylamino)ethyl acetylsalicylate•HCl], the “Stability of the solution at a temperature higher than 40° C. and a pH lower than 3 or greater than 6” value ([1]; 7% solution in water) was “not stable”, the “Effect of the solvent on the stability of the solution” value (from here on “Effect of the solvent”) ([1]; 7% solution, 15% ethanol) was “did not affect the stability” and the “Effect of the solvent” value ([1]; 7% solution, 25% ethanol) was “did not affect the stability”. The “Effect of the solvent” value ([1]; 7% solution, 50% ethanol) was “did not affect the stability”, the “Effect of the amount of ethanol on the stability of the solution” value ([1]; 7% solution, tables 51-54 (water, 15%, 25%, 50% ethanol)) was “did not affect the stability” and the “Purity at day 0” value ([2]; 0.01 wt %) was 99.1%. For the same compound, the “Purity at day 3” value ([2]; 0.01 wt %) was 93.1%, the “Purity at day 7” value ([2]; 0.01 wt %) was 88.2% and the “Purity at day 14” value ([2]; 0.01 wt %) was 81.4%. For the same compound, the “Purity at day 21” value ([2]; 0.01 wt %) was 74.9%, the “Purity at day 28” value ([2]; 0.01 wt %) was 68.3% and the “Purity at day 60” value ([2]; 0.01 wt %) was 47.1%. The “Purity at day 90” value ([2]; 0.01 wt %) was 30.1%, the “Purity at day 0” value ([2]; 0.1 wt %) was 99.2% and the “Purity at day 3” value ([2]; 0.1 wt %) was 95.8%. The “Purity at day 7” value ([2]; 0.1 wt %) was 93.1%, the “Purity at day 14” value ([2]; 0.1 wt %) was 89.5% and the “Purity at day 21” value ([2]; 0.1 wt %) was 86.6%. For the same compound, the “Purity at day 28” value ([2]; 0.1 wt %) was 83.7%, the “Purity at day 60” value ([2]; 0.1 wt %) was 71.8% and the “Purity at day 90” value ([2]; 0.1 wt %) was 59.9%. For the same compound, the “Purity at day 0” value ([2]; 1 wt %) was 99.3%, the “Purity at day 3” value ([2]; 1 wt %) was 97.6% and the “Purity at day 7” value ([2]; 1 wt %) was 96.9%. The “Purity at day 14” value ([2]; 1 wt %) was 95.2%, the “Purity at day 21” value ([2]; 1 wt %) was 93.7% and the “Purity at day 28” value ([2]; 1 wt %) was 91.5%. For the same compound, the “Purity at day 60” value ([2]; 1 wt %) was 82.7%, the “Purity at day 90” value ([2]; 1 wt %) was 74.1% and the “Purity at day 0” value ([2]; 3 wt %) was 99.5%. The “Purity at day 14” value ([2]; 3 wt %) was 96.4%, the “Purity at day 21” value ([2]; 3 wt %) was 94.5% and the “Purity at day 28” value ([2]; 3 wt %) was 92.7%. The “Purity at day 60” value ([2]; 3 wt %) was 86.1%, the “Purity at day 90” value ([2]; 3 wt %) was 80.2% and the “Purity at day 0” value ([2]; 5 wt %) was 99.5%. For the same compound, the “Purity at day 3” value ([2]; 5 wt %) was 99.3%, the “Purity at day 7” value ([2]; 5 wt %) was 99.1% and the “Purity at day 60” value ([2]; 5 wt %) was 96.7%. For the same compound, the “Purity at day 90” value ([2]; 5 wt %) was 96.1%, the “Purity at day 0” value ([2]; 7 wt %) was 99.6% and the “Purity at day 3” value ([2]; 7 wt %) was 99.4%. For the same compound, the “Purity at day 7” value ([2]; 7 wt %) was 99.3%, the “Purity at day 14” value ([2]; 7 wt %) was 99.1% and the “Purity at day 90” value ([2]; 7 wt %) was 97.2%. The “Purity at day 0” value ([2]; 8 wt %) was 99.7%, the “Purity at day 3” value ([2]; 8 wt %) was 99.5% and the “Purity at day 7” value ([2]; 8 wt %) was 99.3%. The “Purity at day 14” value ([2]; 8 wt %) was 99.3%, the “Purity at day 90” value ([2]; 8 wt %) was 97.4% and the “Purity at day 0” value ([2]; 10 wt %) was 99.6%. For the same compound, the “Purity at day 3” value ([2]; 10 wt %) was 99.7%, the “Purity at day 7” value ([2]; 10 wt %) was 99.4% and the “Purity at day 14” value ([2]; 10 wt %) was 99.1%. The “Purity at day 90” value ([2]; 10 wt %) was 97.2%, the “Purity at day 0” value ([2]; 15 wt %) was 99.5% and the “Purity at day 3” value ([2]; 15 wt %) was 99.5%. For the same compound, the “Purity at day 7” value ([2]; 15 wt %) was 99.3%, the “Purity at day 14” value ([2]; 15 wt %) was 99.2% and the “Purity at day 90” value ([2]; 15 wt %) was 97.3%. The “Purity at day 0” value ([2]; 20 wt %) was 99.5%, the “Purity at day 3” value ([2]; 20 wt %) was 99.6% and the “Purity at day 7” value ([2]; 20 wt %) was 99.3%. For the same compound, the “Purity at day 14” value ([2]; 20 wt %) was 99.2%, the “Purity at day 90” value ([2]; 20 wt %) was 97.3% and the “Purity at day 0” value ([2]; 30 wt %) was 99.5%. The “Purity at day 3” value ([2]; 30 wt %) was 99.5%, the “Purity at day 7” value ([2]; 30 wt %) was 99.4% and the “Purity at day 14” value ([2]; 30 wt %) was 99.4%. For the same compound, the “Purity at day 90” value ([2]; 30 wt %) was 97.4%, the “Purity at day 0” value ([2]; 50 wt %) was 99.7% and the “Purity at day 3” value ([2]; 50 wt %) was 99.6%. For the same compound, the “Purity at day 7” value ([2]; 50 wt %) was 99.5%, the “Purity at day 14” value ([2]; 50 wt %) was 99.3% and the “Purity at day 21” value ([2]; 50 wt %) was 99.2%. The “Purity at day 90” value ([2]; 50 wt %) was 97.4% and the “Stability when the concentration is 0.1% or lower” value [2] was “not stable”.
In the case of `CCN(CC)CCOC(=O)[C@@H](C)c1ccc(-c2ccccc2)c(F)c1.Cl` [B-1-2, 2-(diethylamino)ethyl (S)-2-(2-fluoro-4-biphenyl)propionate•HCl salt], the Purity ([3]; 3 month) is reported as 98.6 ± 0.1 and the Purity ([3]; Day 0) is reported as 98.7 ± 0.2.
For “H-Tyr-Gly-Gly-Phe-Met-OCH(CH3)2•HCl salt”, the “Purity(%) at day 1” value [4, 5] was 98.9 ± 0.2%, the “Purity(%) at day 30” value [4, 5] was 98.3 ± 0.2% and the “Purity(%) at day 90” value [4, 5] was 97.2 ± 0.1%. For the same compound, the “Purity(%) at day 180” value [4, 5] was 95.4 ± 0.1%, the “Purity(%) at day 360” value [4, 5] was 92.3 ± 0.2% and the “Purity(%) at day 1” value [4, 6] was 98.9 ± 0.1%. For the same compound, the “Purity(%) at day 30” value [4, 6] was 98.4 ± 0.1%, the “Purity(%) at day 90” value [4, 6] was 97.3 ± 0.2% and the “Purity(%) at day 180” value [4, 6] was 95.5 ± 0.2%. The “Purity(%) at day 360” value [4, 6] was 92.5 ± 0.2%, the “Purity(%) at day 1” value [4, 7] was 98.9 ± 0.2% and the “Purity(%) at day 30” value [4, 7] was 98.4 ± 0.2%. The “Purity(%) at day 90” value [4, 7] was 97.4 ± 0.2%, the “Purity(%) at day 180” value [4, 7] was 95.5 ± 0.2% and the “Purity(%) at day 360” value [4, 7] was 92.4 ± 0.2%. The “Purity(%) at day 1” value [4, 8] was 98.8 ± 0.2%, the “Purity(%) at day 30” value [4, 8] was 97.2 ± 0.2% and the “Purity(%) at day 90” value [4, 8] was 94.1 ± 0.1%. The “Purity(%) at day 180” value [4, 8] was 88.7 ± 0.2%, the “Purity(%) at day 360” value [4, 8] was 81.1 ± 0.3% and the “Purity(%) at day 1” value [4, 9] was 98.5 ± 0.1%. The “Purity(%) at day 30” value [4, 9] was 92.1 ± 0.2%, the “Purity(%) at day 90” value [4, 9] was 85.1 ± 0.2% and the “Purity(%) at day 180” value [4, 9] was 71.9 ± 0.2%. The “Purity(%) at day 360” value [4, 9] was 51.8 ± 0.2%, the “Purity(%) at day 1” value [4, 10] was 98.5 ± 0.3% and the “Purity(%) at day 30” value [4, 10] was 77.9 ± 0.2%. The “Purity(%) at day 90” value [4, 10] was 43.6 ± 0.2%, the “Purity(%) at day 180” value [4, 10] was 24.3 ± 0.3% and the “Purity(%) at day 360” value [4, 10] was 0%. For the same compound, the “Purity(%) at day 1” value [4, 11] was 98.2 ± 0.2%, the “Purity(%) at day 30” value [4, 11] was 56.2 ± 0.2% and the “Purity(%) at day 90” value [4, 11] was 33.3 ± 0.3%. The “Purity(%) at day 180” value [4, 11] was 5.8 ± 0.3%, the “Purity(%) at day 360” value [4, 11] was 0% and the “Purity(%) at day 1” value ([4]; 25% ethanol, pH 3.0, 25° C.) was 98.7 ± 0.2%. The “Purity(%) at day 30” value ([4]; 25% ethanol, pH 3.0, 25° C.) was 97.9 ± 0.2%, the “Purity(%) at day 90” value ([4]; 25% ethanol, pH 3.0, 25° C.) was 95.1 ± 0.1% and the “Purity(%) at day 180” value ([4]; 25% ethanol, pH 3.0, 25° C.) was 90.9 ± 0.2%. For the same compound, the “Purity(%) at day 360” value ([4]; 25% ethanol, pH 3.0, 25° C.) was 82.8 ± 0.3%.
With `CCN(CC)CCOC(=O)[C@H](C)c1ccc(-c2ccccc2)c(F)c1.Cl` [B-1-3, 2-(diethylamino)ethyl (R)-2-(2-fluoro-4-biphenyl)propionate•HCl salt] the Purity ([3]; 18 month) was 98.1 ± 0.2 and the Purity ([3]; 24 month) was 98.0 ± 0.1.
Work on `CCN(CC)CCOC(=O)[C@@H](C)c1ccc2cc(OC)ccc2c1.Cl` [A-1-2, 2-(diethylamino)ethyl (S)-2-(6-methoxy-2-naphthyl) propionate•HCl salt] yielded a Purity ([3]; 24 month) of 98.0 ± 0.1 and a Purity ([3]; Day 0) of 98.6 ± 0.3.
